From PubChem BioAssay (NCI)
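Values below derive from 48-hour exposures of cells grown in 96-well plates, with endpoints linearly interpolated between the two concentrations bracketing the appropriate inhibition level. GI50 = concentration required for 50% inhibition of growth. TGI marks complete inhibition of growth.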

Key:
Assay in all cases: NCI tumour cell line growth inhibition, 48 h
MDA-MB-231 breast = system: MDA-MB-231 breast
ACHN renal = system: ACHN renal
PC-3 prostate = system: PC-3 prostate
NCI/ADR-RES ovarian = system: NCI/ADR-RES ovarian
SF-295 CNS = system: SF-295 CNS
HT29 colon = system: HT29 colon
NCI-H23 lung = system: NCI-H23 lung
SF-268 CNS = system: SF-268 CNS
OVCAR-4 ovarian = system: OVCAR-4 ovarian
OVCAR-5 ovarian = system: OVCAR-5 ovarian
T-47D breast = system: T-47D breast
HCT-116 colon = system: HCT-116 colon
HOP-62 NSCLC = system: HOP-62 NSCLC
EKVX NSCLC = system: EKVX NSCLC
NCI-H522 lung = system: NCI-H522 lung
IGROV1 ovarian = system: IGROV1 ovarian
UACC-62 melanoma = system: UACC-62 melanoma
HCC-2998 colon = system: HCC-2998 colon
SW-620 colon = system: SW-620 colon
DU-145 prostate = system: DU-145 prostate
RPMI-8226 leukemia = system: RPMI-8226 leukemia
A549 NSCLC = system: A549 NSCLC
CCRF-CEM leukemia = system: CCRF-CEM leukemia
SNB-19 CNS = system: SNB-19 CNS
HCT-15 colon = system: HCT-15 colon
KM12 colon = system: KM12 colon
HS 578T breast = system: HS 578T breast
M14 melanoma = system: M14 melanoma
SNB-75 CNS = system: SNB-75 CNS
HOP-92 NSCLC = system: HOP-92 NSCLC
CAKI-1 renal = system: CAKI-1 renal
COLO 205 colon = system: COLO 205 colon
MDA-MB-435 = system: MDA-MB-435
SF-539 CNS = system: SF-539 CNS
RXF 393 renal = system: RXF 393 renal
UACC-257 melanoma = system: UACC-257 melanoma
MALME-3M melanoma = system: MALME-3M melanoma
HL-60(TB) leukemia = system: HL-60(TB) leukemia
MCF7 breast = system: MCF7 breast
UO-31 renal = system: UO-31 renal
MOLT-4 leukemia = system: MOLT-4 leukemia
SK-OV-3 ovarian = system: SK-OV-3 ovarian
786-0 renal = system: 786-0 renal
SK-MEL-28 melanoma = system: SK-MEL-28 melanoma
A498 renal = system: A498 renal
SN12C renal = system: SN12C renal
NCI-H460 lung = system: NCI-H460 lung
NCI-H226 lung = system: NCI-H226 lung
LOX IMVI melanoma = system: LOX IMVI melanoma
SK-MEL-5 melanoma = system: SK-MEL-5 melanoma
BT-549 breast = system: BT-549 breast
SR leukemia = system: SR leukemia
SK-MEL-2 melanoma = system: SK-MEL-2 melanoma
OVCAR-8 ovarian = system: OVCAR-8 ovarian
K-562 leukemia = system: K-562 leukemia
TK-10 renal = system: TK-10 renal
U251 CNS = system: U251 CNS

For `CNC(=O)c1cc(N2CCc3cc(NC(=O)Nc4ccc(N5CCN(C)CC5)c(C(F)(F)F)c4)ccc32)ccn1`, the GI50 (MDA-MB-231 breast) was 3.48 µM, the TGI (MDA-MB-231 breast) was 7.83 µM and the GI50 (ACHN renal) was 3.92 µM. For the same compound, the TGI (ACHN renal) was 7.31 µM, the GI50 (PC-3 prostate) was 4.36 µM and the TGI (PC-3 prostate) was 15.3 µM. For the same compound, the GI50 (NCI/ADR-RES ovarian) was 5.27 µM, the TGI (NCI/ADR-RES ovarian) was 12 µM and the GI50 (SF-295 CNS) was 0.541 µM. It also gave a TGI (SF-295 CNS) of 1.33 µM, a GI50 (HT29 colon) of 1.31 µM and a TGI (HT29 colon) of 4.91 µM. The GI50 (NCI-H23 lung) was 3.73 µM, the TGI (NCI-H23 lung) was 8.06 µM and the GI50 (SF-268 CNS) was 4.08 µM. It also gave a TGI (SF-268 CNS) of 9.86 µM, a GI50 (OVCAR-4 ovarian) of 3.96 µM and a TGI (OVCAR-4 ovarian) of 8.69 µM. For the same compound, the GI50 (OVCAR-5 ovarian) was 3.76 µM, the TGI (OVCAR-5 ovarian) was 8.4 µM and the GI50 (T-47D breast) was 4.14 µM. For the same compound, the TGI (T-47D breast) was 9.32 µM, the GI50 (HCT-116 colon) was 2.22 µM and the TGI (HCT-116 colon) was 5.35 µM. The GI50 (HOP-62 NSCLC) was 4.02 µM, the TGI (HOP-62 NSCLC) was 8.34 µM and the GI50 (EKVX NSCLC) was 3.95 µM. It also gave a TGI (EKVX NSCLC) of 7.73 µM, a GI50 (NCI-H522 lung) of 4.87 µM and a TGI (NCI-H522 lung) of 9.54 µM. The GI50 (IGROV1 ovarian) was 4.6 µM, the TGI (IGROV1 ovarian) was 9.53 µM and the GI50 (UACC-62 melanoma) was 4.48 µM. It also gave a TGI (UACC-62 melanoma) of 9.4 µM, a GI50 (HCC-2998 colon) of 4.13 µM and a TGI (HCC-2998 colon) of 7.83 µM. For the same compound, the GI50 (SW-620 colon) was 0.881 µM, the TGI (SW-620 colon) was 2.87 µM and the GI50 (DU-145 prostate) was 4.22 µM. It also gave a TGI (DU-145 prostate) of 8.12 µM, a GI50 (RPMI-8226 leukemia) of 0.742 µM and a TGI (RPMI-8226 leukemia) of 2.69 µM. It also gave a GI50 (A549 NSCLC) of 3.94 µM, a TGI (A549 NSCLC) of 7.99 µM and a GI50 (CCRF-CEM leukemia) of 1.17 µM. The TGI (CCRF-CEM leukemia) was 21.6 µM, the GI50 (SNB-19 CNS) was 3.6 µM and the TGI (SNB-19 CNS) was 8.12 µM. The GI50 (HCT-15 colon) was 0.879 µM, the TGI (HCT-15 colon) was 3.59 µM and the GI50 (KM12 colon) was 0.862 µM. It also gave a TGI (KM12 colon) of 4.24 µM, a GI50 (HS 578T breast) of 3.49 µM and a TGI (HS 578T breast) of 9.66 µM. It also gave a GI50 (M14 melanoma) of 3.34 µM, a TGI (M14 melanoma) of 6.67 µM and a GI50 (SNB-75 CNS) of 2.55 µM. It also gave a TGI (SNB-75 CNS) of 5.75 µM, a GI50 (HOP-92 NSCLC) of 21.4 µM and a TGI (HOP-92 NSCLC) greater than 25 µM. For the same compound, the GI50 (CAKI-1 renal) was 4.43 µM, the TGI (CAKI-1 renal) was 9.07 µM and the GI50 (COLO 205 colon) was 4.54 µM. It also gave a TGI (COLO 205 colon) of 8.71 µM, a GI50 (MDA-MB-435) of 3.99 µM and a TGI (MDA-MB-435) of 7.6 µM. It also gave a GI50 (SF-539 CNS) of 1.03 µM, a TGI (SF-539 CNS) of 4.15 µM and a GI50 (RXF 393 renal) of 0.815 µM. It also gave a TGI (RXF 393 renal) of 3.15 µM, a GI50 (UACC-257 melanoma) of 4.31 µM and a TGI (UACC-257 melanoma) of 8.05 µM. It also gave a GI50 (MALME-3M melanoma) of 3.72 µM, a TGI (MALME-3M melanoma) of 7.52 µM and a GI50 (HL-60(TB) leukemia) of 4.28 µM. It also gave a TGI (HL-60(TB) leukemia) of 11.9 µM, a GI50 (MCF7 breast) of 2.96 µM and a TGI (MCF7 breast) of 7.39 µM. It also gave a GI50 (UO-31 renal) of 4.22 µM, a TGI (UO-31 renal) of 9.43 µM and a GI50 (MOLT-4 leukemia) of 1.18 µM. The TGI (MOLT-4 leukemia) was 22 µM, the GI50 (SK-OV-3 ovarian) was greater than 25 µM and the TGI (SK-OV-3 ovarian) was greater than 25 µM. It also gave a GI50 (786-0 renal) of 2.86 µM, a TGI (786-0 renal) of 6.15 µM and a GI50 (SK-MEL-28 melanoma) of 3.7 µM. The TGI (SK-MEL-28 melanoma) was 7.19 µM, the GI50 (A498 renal) was 7.9 µM and the TGI (A498 renal) was greater than 25 µM. It also gave a GI50 (SN12C renal) of 4.05 µM, a TGI (SN12C renal) of 8.1 µM and a GI50 (NCI-H460 lung) of 3.78 µM. The TGI (NCI-H460 lung) was 7.68 µM, the GI50 (NCI-H226 lung) was greater than 25 µM and the TGI (NCI-H226 lung) was greater than 25 µM. The GI50 (LOX IMVI melanoma) was 3.44 µM, the TGI (LOX IMVI melanoma) was 7.14 µM and the GI50 (SK-MEL-5 melanoma) was 4.32 µM. It also gave a TGI (SK-MEL-5 melanoma) of 7.89 µM, a GI50 (BT-549 breast) of 4.59 µM and a TGI (BT-549 breast) of 14.4 µM. It also gave a GI50 (SR leukemia) of 0.79 µM, a TGI (SR leukemia) of 4.43 µM and a GI50 (SK-MEL-2 melanoma) of 4.56 µM. The TGI (SK-MEL-2 melanoma) was 8.66 µM, the GI50 (OVCAR-8 ovarian) was 4.48 µM and the TGI (OVCAR-8 ovarian) was 8.67 µM. For the same compound, the GI50 (K-562 leukemia) was 0.69 µM, the TGI (K-562 leukemia) was 2.19 µM and the GI50 (TK-10 renal) was 5.42 µM. For the same compound, the TGI (TK-10 renal) was 11.1 µM, the GI50 (U251 CNS) was 2.45 µM and the TGI (U251 CNS) was 5.75 µM.
